The values that follow come from patent US20240400555A1 (Initial Therapeutics, Inc., priority 2023, published 2024).

As a reminder, the IC50 is the concentration that gives 50% inhibition.

The first test deals with MV-4-11 cells. Description: Cell Viability Assay in MV-4-11 Cells. In kind it is cell-based. The settings on record: Homo sapiens, MV4-11, 72 h. In a few lines: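 Luminescent ATP read-out (CellTiter-Glo) after 72 h compound treatment of MV-4-11 leukaemia cells (7,000 per well, IMDM plus 10% FBS). Values expressed relative to DMSO control and derived by four-parameter non-linear regression.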
`Cc1cccc2ccnc(N(C(=O)c3cccc(C#CCCC(=O)Nc4ccncc4)c3)[C@@H]3CCCNC3)c12` [Example 516, (R)—N-(8-methylisoquinolin-1-yl)-3-(5-oxo-5-(pyridin-4-ylamino)pent-1-yn-1-yl)-N-(piperidin-3-yl)benzamide] displayed an IC50 of 750 nM.

Still in this test, the particulars now being: Homo sapiens, MV4-11, 72 h, MV-4-11 cells, 72 h, Cell-Titer Glo; read-out: IC50.
`Cn1cc(-c2ccc(C(=O)N(c3nccc4sc(-c5ccccc5)cc34)[C@@H]3CCCNC3)c(F)c2)nn1` [Example 510, 2-fluoro-4-(1-methyltriazol-4-yl)-N-(2-phenylthieno[3,2-c]pyridin-4-yl)-N-[(3R)-3-piperidyl]benzamide]: the half-inhibitory concentration (IC50) stood at 260 nM.

On to `Cn1cc(-c2ccc(C(=O)N(c3nccc4sc(-c5ccsc5)cc34)[C@@H]3CCCNC3)c(F)c2)nn1` [Example 511, 2-fluoro-4-(1-methyltriazol-4-yl)-N-[(3R)-3-piperidyl]-N-[2-(3-thienyl)thieno[3,2-c]pyridin-4-yl]benzamide], for which the IC50 was 250 nM.

As to `Cc1cccc2ccnc(N(C(=O)c3cccc(C#CCCO)c3)[C@@H]3CCCNC3)c12` [Example 512, (R)-3-(4-hydroxybut-1-yn-1-yl)-N-(8-methylisoquinolin-1-yl)-N-(piperidin-3-yl)benzamide], the 50% inhibitory concentration (IC50) was 1100 nM.

For the compound `Cc1cccc2ccnc(N(C(=O)c3cccc(C#CCCCO)c3)[C@@H]3CCCNC3)c12` [Example 513, (R)-3-(5-hydroxypent-1-yn-1-yl)-N-(8-methylisoquinolin-1-yl)-N-(piperidin-3-yl) benzamide], the IC50 is 540 nM.

On to `Cc1cccc2ccnc(N(C(=O)c3cccc(C#CCCCCO)c3)[C@@H]3CCCNC3)c12` [Example 514, (R)-3-(6-hydroxyhex-1-yn-1-yl)-N-(8-methylisoquinolin-1-yl)-N-(piperidin-3-yl)benzamide], for which the IC50 was 890 nM.

Consider `Cc1cccc2ccnc(N(C(=O)c3cccc(C#CCCN)c3)[C@@H]3CCCNC3)c12` [Example 515, (R)-3-(4-aminobut-1-yn-1-yl)-N-(8-methylisoquinolin-1-yl)-N-(piperidin-3-yl)benzamide], for which the half-inhibitory concentration (IC50) is 2100 nM.

For `Cc1cccc2ccnc(N(C(=O)c3cccc(C#CCCC(=O)NCc4ccncc4)c3)[C@@H]3CCCNC3)c12` [Example 517, (R)—N-(8-methylisoquinolin-1-yl)-3-(5-oxo-5-((pyridin-4-ylmethyl)amino)pent-1-yn-1-yl)-N-(piperidin-3-yl)benzamide], the IC50 stood at 7300 nM.

Regarding `Cc1cccc2ccnc(N(C(=O)c3cccc(C#CCCC(=O)N4CCC(O)C4)c3)[C@@H]3CCCNC3)c12` (stereo partly drawn) [Example 518, 3-(5-(3-hydroxypyrrolidin-1-yl)-5-oxopent-1-yn-1-yl)-N-(8-methylisoquinolin-1-yl)-N—((R)-piperidin-3-yl)benzamide], the half-maximal inhibitory concentration (IC50) came to 940 nM.

For `Cc1cccc2ccnc(N(C(=O)c3cccc(C#CCCC(=O)N4CCOCC4)c3)[C@@H]3CCCNC3)c12` [Example 519, (R)—N-(8-methylisoquinolin-1-yl)-3-(5-morpholino-5-oxopent-1-yn-1-yl)-N-(piperidin-3-yl)benzamide], the IC50 amounted to 430 nM.

Regarding `Cc1cccc2ccnc(N(C(=O)c3cccc(C#CCCC(=O)NC(C)CO)c3)[C@@H]3CCCNC3)c12` (stereo partly drawn) [Example 520, 3-(5-((1-hydroxypropan-2-yl)amino)-5-oxopent-1-yn-1-yl)-N-(8-methylisoquinolin-1-yl)-N—((R)-piperidin-3-yl)benzamide], the 50% inhibitory concentration (IC50) was 1700 nM.

For the compound `CNC(=O)c1ccc(-c2cc3c(N(C(=O)c4ccc(-c5cn(C)nn5)cc4F)[C@@H]4CCCNC4)nccc3s2)cc1` [Example 521, (R)-2-fluoro-4-(1-methyl-1H-1,2,3-triazol-4-yl)-N-(2-(4-(methylcarbamoyl)phenyl)thieno[3,2-c]pyridin-4-yl)-N-(piperidin-3-yl)benzamide], the half-inhibitory concentration (IC50) was determined as 760 nM.

Regarding `CC(C)NC(=O)c1ccc(-c2cc3c(N(C(=O)c4ccc(-c5cn(C)nn5)cc4F)[C@@H]4CCCNC4)nccc3s2)cc1` [Example 522, 2-fluoro-N-[2-[4-(isopropylcarbamoyl)phenyl]thieno[3,2-c]pyridin-4-yl]-4-(1-methyltriazol-4-yl)-N-[(3R)-3-piperidyl]benzamide], the concentration for half-maximal inhibition (IC50) was found to be 770 nM.
